In patent publication US7273925B1, “Methods and products for regulating lectin complement pathway associated complement activation” (Brigham and Women's Hospital, Inc., priority 1998, dated 2007):

Experiments:
HUVECs = test: Microphysiometry of HUVEC extracellular acidification rate (EAR); type: cell-based, human; conditions: normoxic or hypoxic/reoxygenated HUVECs; MBL 300-1500 ng/ml, 40 min perfusion; histamine 1 μmol/L
Description: Microphysiometry. Changes in HUVEC extracellular acidification rate (EAR) were evaluated by use of a Cytosensor microphysiometer (Molecular Devices, Sunnyvale, Calif.). HUVECs were grown to 75% confluence on gelatin-coated (1%) transwell capsules and subjected to 24 hr of hypoxia followed by 3 hr of reoxygenation. Following 30 min of equilibration in modified RPMI containing 1 mmol/L phosphate buffer (Molecular Devices, Sunnyvale, Calif.), the EARs were determined (Gronert K, et al., “Characterization of human neutrophil and endothelial cell ligand-operated extacellular acidification rate by microphysiometry: Impact of reoxygenation”, J. Pharmacol.Exp.Ther. 1998;285:252-261). HUVECs were perfused with 300-1500 ng/ml of purified MBL (dialyzed in the modified RPMI) for 30 sec before the first rate measurement and perfusion was maintained for 40 min. As a positive control, the HUVECs were perfused with media alone for 15 min following MBL exposure and then stimulated with histamine (1 μmol/L, 15 min perfusion) to evoke extracellular acidification. Each concentration of MBL was analyzed in two independent chambers containing normoxic or hypoxic/reoxygenated HUVECs. The HUVEC response to each MBL concentration was evaluated in 3 separate experiments (n=3).

MBL [1] = molecular target: T1, MBL (Homo sapiens, UniProt P11226); test: iC3b (C3) deposition cell surface ELISA on hypoxic/reoxygenated HUVECs; type: cell-based; conditions: for iC3b deposition compared with normoxic HUVECs (FIG. 4a): 30 mmol/L in 30% human serum; for inhibition of iC3b deposition on hypoxic/reoxygenated HUVECs (in words): sugar at 3-300 mmol/L in 30% HS; for attenuation of iC3b deposition: HUVECs 24 hr hypoxia, 3 hr reoxygenation
T1 construct: 3 hr of reoxygenation in the presence of 30% human serum (HS); from tissue; host or cells: human serum (30% HS on HUVECs; 2% human sera on mannan-coated plates)
T1 sequence (P11226 21-248): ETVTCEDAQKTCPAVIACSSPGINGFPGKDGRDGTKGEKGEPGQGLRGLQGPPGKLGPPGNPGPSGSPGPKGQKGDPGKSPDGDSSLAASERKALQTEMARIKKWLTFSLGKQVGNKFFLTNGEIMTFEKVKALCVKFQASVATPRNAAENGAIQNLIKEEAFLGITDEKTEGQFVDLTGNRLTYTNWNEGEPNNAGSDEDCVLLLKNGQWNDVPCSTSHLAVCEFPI
Description: Enzyme-Linked Immunoabsorbent Assay (ELISA) Experiments. […] HUVECs were grown to confluence on 0.1% gelatinized 96-well plastic plates (Corning Costar, Cambridge, Mass.). The plates were then subjected to 0 (normoxia) or 24 hr of hypoxia. Hypoxic stress was maintained using a humidified sealed chamber (Coy Laboratory Products, Inc., Grass Lake, Mich.) at 37° C. gassed with 1% O2, 5% CO2, balance N2 (Collard C D, et al., “Reoxygenation of hypoxic human umbilical vein endothelial cells activates the classical complement pathway”, Circulation 1997;96:326-333). Following the specified period of normoxia or hypoxia, the cell media were aspirated and 100 μl of one of the following was added to each well: 1) 30% HS, 2) Hank's balanced salt solution, 3) 30% HS+3, 30, or 300 mmol/L GluNAc, 4) 30% HS+3, 30, or 300 mmol/L D-mannose, 5) 30% HS+3, 30, 300 mmol/L L-mannose, 6) 30% MBL-depleted HS+3F8 (0, 20, 50 μg/ml)or 7) 30% MBL-depleted HS +0.6 μg/ml MBL. Additionally, 100 μl of purified MBL (3-300 ng/ml) was added to select wells to form a standard curve for quantitative analysis of MBL deposition. The cells were then reoxygenated for 3 hr at 37° C. in 95% air and 5% CO2. The cells were washed and then fixed with 1% paraformaldehyde (Sigma Chemical Co., St. Louis, Mo.) for 30 min. The cells were then washed and incubated at 4° C. for 1.5 hr with 50 μl of peroxidase-conjugated polyclonal goat anti-human C3 antibody (1:1000 dilution) or monoclonal anti-human MBL antibody (1:1000 dilution). The MBL ELISA plates were then washed and incubated for 1 hr at 4° C. with 50 μl of peroxidase-conjugated polyclonal goat anti-mouse IgG secondary antibody (1:1000 dilution). After washing the cells, the plates were developed with […] of ABTS (2,2′-azino-bis(3-ethylbenzthiazoline-6-sulfonic acid)), and read (Molecular Devices, Sunnyvale, Calif.) at 405 nm. Background controls for the C3 ELISA consisted of cells to which only the anti-human C3 antibody was added (i.e., no […]) or cells incubated with 30% heat-inactivated HS. Background controls for the MBL ELISA consisted of cells to which only secondary antibody and an isotype control monoclonal antibody to porcine C5a were added. Background optical density was subtracted from all groups. All ELISA experiments were performed 3 times using 6 wells per experimental group. Endothelial C3 and MBL deposition on normoxic vs. hypoxic […] was analyzed by two-way analysis of variance (ANOVA).
HUVEC cell culture and quantitation of iC3b deposition by ELISA were performed as outlined in Example 2.
Results. HUVECs were subjected to 0 or 24 hr of hypoxia followed by 3 hr of reoxygenation in the presence of 30% HS or 30% HS treated with 3, 30, or 300 mmol/L GluNAc, D-mannose or L-mannose in order to inhibit MBL deposition, LCP activation and iC3b deposition.
HUBECs were hypoxic for 24 hours and then reoxygenated in 30% human sera. iC3b deposition was then normalized to normoxic cells.

MBL [2] = molecular target: T1, MBL; test: Functional screen: C3 deposition on mannan-coated plates in 2% human sera; type: biochemical
Description: Methods. The functional screen for inhibition of MBL function by anti-human MBL antibodies was adapted from the literature{Super, Levinsky, et al., The level of mannan-binding protein regulates the binding of complement-derived opsonins to mannanand zymosan at low serum concentrations, Clin. Exp. Immunol. 1990; 79:144-150}. Briefly, 100 μl of mcannan (0.5 mg/ml in sodium carbonate/bicarbonate buffer, pH 9.6) was added to RIA/EIA plates at 4C overnight. The plates were then washed 3 times in PBS/0.5% Tween pH 7.3, once in PBS and finally in veronal-buffered saline. Human serum is diluted to 4% in VBS containing 5 mM Ca^2+ and Mg^2+. Diluted sera and tissue culture supernatant or purified antibody (various concentrations) are then 1:1 to a mannan-coated well to yield a final volume or 100 μl at a concentration of 2% human sera. The plate is then incubated at 37C for 30 min. Positive and negative controls consist of human sera without and with 100 mM N-acetlglucosamine (GluNac). The plates are then washed four times in PBS/Tween. The plates are then incubated with an anti-human C3 polyclonal antibody coupled with HRP (1 hours at RT), washed and developed with ABTS and read at 405 nm.

MBL [3] = molecular target: T1, MBL; test: MBL deposition cell surface ELISA on hypoxic/reoxygenated HUVECs; type: cell-based; conditions: for attenuation of MBL deposition: HUVECs 24 hr hypoxia, 3 hr reoxygenation
Description: C3 and MBL specific cell surface ELISAs can be performed using peroxidase-conjugated polyclonal goat anti-human C3 antibody (Cappel, West Chester, Pa.) and monoclonal anti-human MBL antibody (Biodesign, Kennebunk, Me., clone #131-1), respectively. HUVECs are grown to confluence on 0.1% gelatinized 96-well plastic plates (Corning Costar, Cambridge, Mass.). The plates are then subjected to 0 (normoxia) or 24 hr of hypoxia. Hypoxic stress is maintained using a humidified sealed chamber (Coy Laboratory Products, Inc., Grass Lake, Mich.) at 37° C. gassed with 1% O2, 5% CO2, balance N2 (Collard C D, et al., “Reoxygenation of hypoxic human umbilical vein endothelial cells activates the classical complement pathway”, Circulation, 1997;96:326-333). Following the specified period of normoxia or hypoxia, the cell media are aspirated and 100 μl of one the following is added to each well: 1) 30% HS, 2) Hank's balanced salt solution, 3) 30% HS +3, 30, or 300 mmol/L GluNAc, 4) 30% HS+3, 30, or 300 mmol/L D-mannose, 5) 30% HS+3, 30, 300 mmol/L L-mannose, 6) 30% MBL-depleted HS 7) 30% MBL-depleted HS+0.6 μg/ml MBL or 8) 30% HS+3, 30, or 300 mmol/L putative MBL binding peptide. Additionally, 100 μl of purified MBL (3-300 ng/ml) is added to select wells to form a standard curve for quantitative analysis of MBL deposition. The cells are then reoxygenated for 3 hr at 37° C. in 95% air and 5% CO2. The cells are washed and then fixed with 1% paraformaldehyde (Sigma Chemical Co., St. Louis, Mo.) for 30 min. The cells are then washed and incubated at 4° C. for 1.5 hr with 50 μl of peroxidase-conjugated polyclonal goat anti-human C3 antibody (1:1000 dilution) or monoclonal anti-human MBL antibody (1:1000 dilution). The MBL ELISA plates are then washed and incubated for 1 hr at 4° C. with 50 μl of peroxidase-conjugated polyclonal goat anti-mouse IgG secondary antibody (1:1000 dilution). After washing the cells, the plates are developed with 50 μl of ABTS (2,2′-azino-bis(3-ethylbenzthiazoline-6-sulfonic acid)), and read (Molecular Devices, Sunnyvale, Calif.) at 405 nm. Background controls for the C3 ELISA consist of cells to which only the anti-human C3 antibody is added (i.e., no HS) or cells incubated with 30% heat-inactivated HS. Background controls for the MBL ELISA consist of cells to which only secondary antibody and an isotype control monoclonal antibody to porcine C5a are added. Background optical density is subtracted from all groups. ELISA experiments are generally performed 3 times using 6 wells per experimental group. Endothelial C3 and MBL deposition on normoxic vs. hypoxic HUVECs is analyzed by two-way analysis of variance (ANOVA).
Enzyme-Linked Immunoabsorbent Assay (ELISA) Experiments. […]

MBL: mannan-(or mannose) binding lectin purified from human plasma
change in extracellular acidification rate (EAR) (HUVECs): did not evoke receptor-mediated changes in the EAR

NCCc1c[nH]cn1 [histamine]
change in extracellular acidification rate (EAR) (HUVECs): all cells remained responsive

CC(=O)N[C@H]1C(O)O[C@H](CO)[C@@H](O)[C@@H]1O (stereo partly drawn) [GluNAc, N-acetyl-D-glucosamine]
iC3b deposition compared with normoxic HUVECs (FIG. 4a) (MBL [1]): did not significantly differ from normoxic controls | inhibition of iC3b deposition on hypoxic/reoxygenated HUVECs (in words) (MBL [1]): significantly attenuated | EC50 (MBL [2]): ~1 nM | attenuation of MBL deposition (MBL [3]; 3 mmol/L in 30% HS): 40±4% | attenuation of MBL deposition (MBL [3]; 30 mmol/L in 30% HS): 71±5% | attenuation of MBL deposition (MBL [3]; 300 mmol/L in 30% HS): 96±3% | MBL deposition on hypoxic/reoxygenated HUVECs (in words) (MBL [3]; 3, 30, 300 mmol/L added to 30% HS, dose-dependent): significantly inhibited MBL deposition

O=C[C@H](O)[C@H](O)[C@@H](O)[C@@H](O)CO [L-mannose]
iC3b deposition compared with normoxic HUVECs (FIG. 4a) (MBL [1]): significantly greater than normoxic HUVECs | iC3b deposition, OD405 (MBL [1]; hypoxic HUVECs reoxygenated in 30% HS treated with the sugar, normoxic 0.05±0.01): 0.14±0.01 | inhibition of iC3b deposition on hypoxic/reoxygenated HUVECs (in words) (MBL [1]): did not inhibit iC3b deposition

O=C[C@@H](O)[C@@H](O)[C@H](O)[C@H](O)CO [D-mannose]
attenuation of iC3b deposition (MBL [1]; 3 mmol/L in 30% HS): 19±2% | attenuation of iC3b deposition (MBL [1]; 30 mmol/L in 30% HS): 52±3% | iC3b deposition compared with normoxic HUVECs (FIG. 4a) (MBL [1]): did not significantly differ from normoxic controls | attenuation of iC3b deposition (MBL [1]; 300 mmol/L in 30% HS): 96±2% | inhibition of iC3b deposition on hypoxic/reoxygenated HUVECs (in words) (MBL [1]): significantly attenuated
